{
  "source": "patent US7671211B1",
  "about": "“Substrates for thioredoxin reductase” (priority 1999, dated 2010)",
  "key": {"[1]": {"biological_target": "T1, human thioredoxin reductase (Homo sapiens, UniProt Q16881)", "T1 construct": "Thioredoxin reductase (TrxR) from human placenta were purified to homogeneity; from tissue; host or cells: human placenta", "T1 sequence (Q16881 1-499 isoform Q16881-5)": "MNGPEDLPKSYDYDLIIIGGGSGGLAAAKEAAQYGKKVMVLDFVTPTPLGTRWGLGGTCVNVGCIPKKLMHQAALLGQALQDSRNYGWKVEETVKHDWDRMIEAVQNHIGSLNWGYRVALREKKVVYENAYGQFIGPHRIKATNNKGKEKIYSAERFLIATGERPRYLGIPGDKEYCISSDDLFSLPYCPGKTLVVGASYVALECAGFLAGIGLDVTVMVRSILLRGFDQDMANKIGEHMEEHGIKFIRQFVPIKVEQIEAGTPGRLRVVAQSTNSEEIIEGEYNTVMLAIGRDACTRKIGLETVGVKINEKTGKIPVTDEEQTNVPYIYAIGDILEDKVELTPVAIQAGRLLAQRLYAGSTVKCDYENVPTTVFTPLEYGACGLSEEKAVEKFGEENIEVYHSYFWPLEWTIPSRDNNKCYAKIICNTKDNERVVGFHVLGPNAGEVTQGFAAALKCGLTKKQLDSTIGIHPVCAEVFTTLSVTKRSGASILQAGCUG", "experiment": "Reduction of hydrogen peroxide by human thioredoxin reductase (hydrogen peroxide reductase activity)", "format": "biochemical", "details": "hydrogen peroxide 2 mM, TrxR 17 nM, human Trx 5 μM"}, "[2]": {"biological_target": "T2, calf thymus thioredoxin reductase (Bos taurus, UniProt O62768)", "T2 construct": "Thioredoxin reductase (TrxR) from calf thymus or human placenta were purified to homogeneity; from tissue; host or cells: calf thymus", "T2 sequence (O62768 1-499)": "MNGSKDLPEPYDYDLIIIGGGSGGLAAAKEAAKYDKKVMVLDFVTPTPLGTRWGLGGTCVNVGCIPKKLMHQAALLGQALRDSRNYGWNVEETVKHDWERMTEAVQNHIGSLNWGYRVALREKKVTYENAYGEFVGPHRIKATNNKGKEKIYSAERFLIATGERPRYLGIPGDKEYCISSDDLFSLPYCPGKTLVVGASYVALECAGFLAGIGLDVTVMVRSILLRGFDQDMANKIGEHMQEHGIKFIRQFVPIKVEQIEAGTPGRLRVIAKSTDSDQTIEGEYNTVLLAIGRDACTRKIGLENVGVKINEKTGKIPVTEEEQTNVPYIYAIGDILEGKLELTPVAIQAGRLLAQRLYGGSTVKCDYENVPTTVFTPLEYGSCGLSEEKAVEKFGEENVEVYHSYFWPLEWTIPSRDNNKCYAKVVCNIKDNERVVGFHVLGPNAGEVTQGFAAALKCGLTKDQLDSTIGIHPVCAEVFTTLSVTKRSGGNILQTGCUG", "experiment": "Trx-catalyzed insulin disulfide reduction assay", "format": "biochemical", "details": "for SH-group: 5 μM human Trx, 10 nM calf thymus thioredoxin reductase, 3 min, 20° C.; for Activity: relative to 0 μM = 100", "protocol": "(§1) The activity of thioredoxin reductase was determined in the insulin assay. A mixture of 100 mM potassium phosphate (pH 7.0), 2 mM NADPH, and 0.16 mM insulin was added with Compound A and thioredoxin, and then with thioredoxin reductase in a total volume of 0.55 ml for the reaction. The progress of reduction of insulin disulfides was followed at 340 nm. Generated sulfhydryl or selenol groups were measured at 412 nm by addition of 0.50 ml of a mixture of 6 M guanidine-HCl, 0.20 M Tris-Cl (pH 8.0), 1 mM DTNB and calculated using a molar extinction coefficient of 13,600 M^−1cm^−1. DTNB reducing activity of thioredoxin reductase by using NADPH was measured at 412 nm in 100 mM potassium phosphate (pH 7.0) containing 10 mM EDTA, 0.2 mM NADPH, 5 mM DTNB and 0.1 mg per ml of bovine serum albumin.\n(§2) To test whether or not Compound A inhibited thioredoxin reductase, enzyme assays were performed.\n(§3) Then 0.5 ml of a mixture containing 6 M guranidine HCl, 0.20 M Tris-HCl (pH 8.0) and 1 mM DTNB was added to stop the reaction and the absorbance at 412 nm was used to calculate the amount of SH-groups generated in insulin. In (B), 10 nM calf thymus thioredoxin reductase was preincubated with or without 50 μM compound A and 100 μM NADPH for 1 h. Then 10 μl of the resulting solution was added to 500 μl of a mixture of 0.1 M Tris-HCl (pH 8.0), 1 mM EDTA and 5 mM DTNB to determine activity at 412 nm. Activity is expressed as the amount of SH-groups generated (μM) after 3 min."}, "[3]": {"biological_target": "T1, human thioredoxin reductase", "experiment": "Reduction of Compound A by human thioredoxin reductase (NADPH oxidation at 340 nm, selenol detection with DTNB)", "format": "biochemical", "protocol": "(§4) Measurements of thioredoxin reductase activity were performed in TF buffer (50 mM Tris-Cl, 1 mM EDTA, pH 7.5) with 100 μM NADPH and a given amount of Compound A. Reactions were carried out with addition of 5 or 10 μl of stock solution of thioredoxin reductase in a final volume of 0.55 ml. Cuvettes used as reference contained the same amount of DMSO as in the samples and also thioredoxin reductase. Absorbance of the control cuvette was automatically subtracted by the spectrophotometer. The reactions were followed at 340 nm.\nCompound A absorbs at 340 nm with a 4,000 M^−1cm^−1 molar extinction coefficient, and N-phenyl-2-carboxamidobenzene selenol, the reduction product of selenol by a dithiol, has half the absorption (2000 M^−1cm^−1) at 340 nm. The formation of the compound A-selenol was confirmed by measuring absorption spectra in the presence or absence of excess DTT. In calculations of the formation of compound A-selenol, a molar extinction coefficient of 8,200 M^−1cm^−1 was used since oxidation of NADPH to NADP^+ yields 6,200 M^−1cm^−1.\nCompound A 50 μM (●) or 100 μM (□) was dissolved in 0.55 ml of a solution containing 50 mM Tris-Cl, 1 mM EDTA (pH 7.5) and 100 μM NADPH, and mixed with 40 nM human thioredoxin reductase. Absorbance at 340 nm was measured and corrected against the blank value (with the same amounts of enzyme, but without compound A). The same experiments using 50 μm (●) and 100 μM (Δ) Compound A mixed with 17 nM enzyme were performed.\nThe reaction was fast since with 50 μM Compound A the reaction was complete after 1 min. […] When 6 M guanidine hydrochloride containing DTNB was added to the cuvette at 7 min, an absorbance at 412 nm of 0.400 was measured indicating formation of selenol groups. Compound A itself gave no reaction with DTNB. The reaction with 100 μM compound A was seemingly slower from the decrease in absorbance at 340 nm using 40 nM enzyme."}, "[4]": {"biological_target": "E.coli Trx-(SH)2 (Escherichia coli, UniProt P0AA25)", "sequence (P0AA25 whole entry)": "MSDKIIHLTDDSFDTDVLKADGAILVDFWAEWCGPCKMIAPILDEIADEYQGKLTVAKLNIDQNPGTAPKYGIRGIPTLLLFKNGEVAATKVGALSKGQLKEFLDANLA", "experiment": "Oxidation of E.coli Trx-(SH)2 by compound A determined by fluorescence spectroscopy", "format": "biochemical", "details": "0.1 μM Trx-(SH)2 mixed with 0.1 μM compound A, pH 7.5, 22° C.", "protocol": "Protein fluorescence was measured with a thermostated SPEX-Fluoro Max instrument. Trx-(SH)2 was prepared from E.coli Trx-S2 640 μM which was incubated at room temperature for 20 min with 10 mM DTT. DTT was subsequently removed by gel chromatography (on a NAP-5 column (Pharmacia) using N2 equilibrated buffer). Trx-(SH)2 was mixed with Compound A dissolved in a total volume of 3 ml of a mixture (pH 7.5) of 0.1 M potassium phosphate and 1 mM EDTA, and fluorescence was immediately measured in the spectrofluorimeter at 22° C. Excitation of fluorescence was at 290 nm and emission spectra from 300 to 500 nm were recorded. Fluorescence at 340 nm was used to follow the oxidation of Trx-(SH)2 to record the rate of the reaction.\nMammalian and E.coli Trx have the same active site GPC and reactivity with disulfides. […] N2 equilibrated 0.1 M potassium phosphate was added with 0.1 μM (1.2 μg/ml) of E.coli Trx-(SH)2 and then with 1 mM EDTA (pH 7.5) to prepare a sample. Fluorescence of the sample was excited at 290 nm. The […] at the wavelength range from 300 to 500 nm was recorded. Then 0.1 μM of compound A was added and a spectrum was recorded. […] This is the fastest reaction for oxidation of reduced thioedoxin by a low molecular weight compound."}, "[5]": {"biological_target": "T2, calf thymus thioredoxin reductase", "experiment": "Reduction of DTNB by thioredoxin reductase", "format": "biochemical", "protocol": "as §1, §2, §3"}, "[6]": {"biological_target": "T1, human thioredoxin reductase", "experiment": "Reduction of hydrogen peroxide by human thioredoxin reductase (hydrogen peroxide reductase activity)", "format": "biochemical", "details": "for effect on reaction rate of hydrogen peroxide reduction: 4.5 μM Trx; for turnover of enzyme (hydrogen peroxide reduction) / fold increase of hydrogen peroxide reductase activity: 0.5 mM hydrogen peroxide, 17 nM human TrxR; for fold increase of hydrogen peroxide reductase activity: versus enzyme alone", "protocol": "as §4\n[…] The absorbance at 340 nm was determined against a blank with 17 nM thioredoxin reductase but without hydrogen peroxide. As a result, with 0.50 mM hydroperoxide a turnover number of 30×min^−1 was calculated. Addition of 2 μM compound A stimulated the activity with the enzyme which increased its activity to a turnover of 450×min^−1 or 15-fold. […] Thus, Compound A acts to dramatically increase the hydrogen peroxide reductase activity of thioredoxin reductase and also acts as a thioredoxin peroxidase mimic.\nAddition of 4.5 μM thioredoxin to 17 nM thioredoxin reductase stimulated the reduction of hydrogen peroxide. […] The same conditions as in FIG. 5 were applied with only 17 nM thioredoxin reductase (●) and addition of 4.5 μM Trx (Δ). Then […] was added to adjust the final compound A concentration to […].\nThus compound A increased activity of the enzyme with lower more physiologically relevant concentrations, and this increase was about 25-fold. […] Activity is expressed as the variation ratio per min, ΔA340/min. […]"}, "[7]": {"biological_target": "T1, human thioredoxin reductase", "details": "human Trx-S2, comparison value, cited from earlier work"}, "[8]": {"details": "2 μM compound A plus 4.5 μM human Trx"}},
  "note": "Where two headings read alike, the source gives them in different places.",
  "data": [
    {"molecule": "O=c1c2ccccc2[se]n1-c1ccccc1", "note": "[Compound A, 2-phenyl-1,2-benzisoselenazol-3(2H)-one]", "values": [
      {"measurement": "turnover of Compound A", "setting": "[1]", "result": 23, "unit": "min⁻¹"},
      {"measurement": "enzyme turnover", "setting": "[1]; compound A", "result": 1328, "unit": "min⁻¹"},
      {"measurement": "NADPH oxidation rate", "setting": "[1]; same rate with 1, 2 and 5 μM compound A", "result": 23, "unit": "µM/min"},
      {"measurement": "effect in insulin disulfide reduction assay using thioredoxin and thioredoxin reductase", "setting": "[2]", "result": "only a small effect"},
      {"measurement": "SH-group", "setting": "[2]; 5 μM Compound A", "result": 70.6, "unit": "µM"},
      {"measurement": "Activity", "setting": "[2]; 5 μM Compound A", "result": 89, "unit": "%"},
      {"measurement": "SH-group", "setting": "[2]; 10 μM Compound A", "result": 68.4, "unit": "µM"},
      {"measurement": "Activity", "setting": "[2]; 10 μM Compound A", "result": 88, "unit": "%"},
      {"measurement": "Kcal", "setting": "[3]; 15 nM enzyme, 5, 10 and 20 μM compound A", "result": "1000 ± 300", "unit": "min⁻¹"},
      {"measurement": "Km", "setting": "[3]; 15 nM enzyme, 5, 10 and 20 μM compound A, read-out: Km-value as substrate for thioredoxin reductase", "result": "< 5", "unit": "µM"},
      {"measurement": "time until reaction complete", "setting": "[3]; 50 μM Compound A, 40 nM human thioredoxin reductase, 100 μM NADPH", "result": 1, "unit": "min"},
      {"measurement": "absorbance at 412 nm after DTNB addition (formation of selenol groups)", "setting": "[3]; 6 M guanidine hydrochloride containing DTNB added at 7 min, 50 μM Compound A, 40 nM enzyme", "result": 0.400},
      {"measurement": "oxidation rate of Trx-(SH)2", "setting": "[4]", "result": "> 2e+07", "unit": "M⁻¹ s⁻¹"},
      {"measurement": "inhibition of thioredoxin reductase with DTNB as substrate", "setting": "[5]; 50 μM Compound A and 10 nM enzyme", "result": "No inhibition"},
      {"measurement": "SH-group", "setting": "[5]; 50 μM Compound A preincubated with 10 nM enzyme and 100 μM NADPH for 1 h, after 3 min", "result": 7.5, "unit": "µM"},
      {"measurement": "Activity", "setting": "[5]; 50 μM Compound A, preincubation 1 h, relative to 0 μM = 100", "result": 103, "unit": "%"},
      {"measurement": "inhibition of the enzyme after preincubation with compound A", "setting": "[5]; preincubation in the presence or absence of NADPH", "result": "did not inhibit"},
      {"measurement": "effect on reaction rate of hydrogen peroxide reduction", "setting": "[6]; 0.5 μM compound A, 17 nM thioredoxin reductase", "result": "increased the reaction rate"},
      {"measurement": "effect on reaction rate of hydrogen peroxide reduction", "setting": "[6]; 5.5 μM compound A, 17 nM thioredoxin reductase", "result": "stimulated strongly"},
      {"measurement": "fold increase of enzyme activity at low hydrogen peroxide concentration", "setting": "[6]; 100 μM hydrogen peroxide, 17 nM thioredoxin reductase, 2 μM Compound A", "result": "about 25 fold"},
      {"measurement": "turnover of enzyme (hydrogen peroxide reduction)", "setting": "[6]; 2 μM compound A", "result": 450, "unit": "min⁻¹"},
      {"measurement": "turnover of enzyme (hydrogen peroxide reduction)", "setting": "[6]; [8]", "result": 900, "unit": "min⁻¹"},
      {"measurement": "fold increase of hydrogen peroxide reductase activity", "setting": "[6]; [8]", "result": 30, "unit": "fold"},
      {"measurement": "fold increase of hydrogen peroxide reductase activity", "setting": "[6]; 2 μM compound A", "result": 15, "unit": "fold"}
    ]},
    {"molecule": "human Trx-S2: oxidized human thioredoxin, protein substrate of thioredoxin reductase, used for comparison of Km and Kcal (protein, UniProt P10599 2-105, looked up, oxidized, oxidized human thioredoxin, protein substrate of thioredoxin reductase, used for comparison of Km and Kcal) Thioredoxin: VKQIESKTAFQEALDAAGDKLVVVDFSATWCGPCKMIKPFFHSLSEKYSNVIFLEVDVDDCQDVASECEVKCMPTFQFFKKGQKVGEFSGANKEKLEATINELV", "values": [
      {"measurement": "Kcal", "setting": "[7]", "result": 3000, "unit": "min⁻¹"},
      {"measurement": "Km", "setting": "[7]; read-out: Km-value as substrate for thioredoxin reductase", "result": 2.5, "unit": "µM"}
    ]}
  ]
}
